Patent publication US9708308B2, “Factor IXa inhibitors” (Merck Sharp & Dohme Corp., priority 2012, dated 2017)

What follows are molecules tested against Factor IXa (Homo sapiens, UniProt P00740) (assay: Determination of inhibitory activity against Factor IXa (cleavage of fluorescent peptide substrate)). Conditions: cleavage of fluorescent peptide CH3SO2-D-CHG-Gly-Arg-AFC, release of AFC; read-out: FIXa IC50.
Format: biochemical
How it was run: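 Factor IXa activity followed via cleavage of CH3SO2-D-CHG-Gly-Arg-AFC, releasing AFC. Fluorescence read at excitation 405 nm, emission 510 nm.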

Factor IXa, sequence (P00740 227-461 limits assumed): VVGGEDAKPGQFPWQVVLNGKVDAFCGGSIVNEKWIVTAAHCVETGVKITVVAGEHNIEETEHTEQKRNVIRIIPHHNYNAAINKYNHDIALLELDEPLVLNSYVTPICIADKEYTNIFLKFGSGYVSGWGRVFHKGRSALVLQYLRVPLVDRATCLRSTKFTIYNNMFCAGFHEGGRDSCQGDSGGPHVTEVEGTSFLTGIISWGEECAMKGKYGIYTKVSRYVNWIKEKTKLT
Factor IXa, sequence (P00740 47-191 partner limits assumed): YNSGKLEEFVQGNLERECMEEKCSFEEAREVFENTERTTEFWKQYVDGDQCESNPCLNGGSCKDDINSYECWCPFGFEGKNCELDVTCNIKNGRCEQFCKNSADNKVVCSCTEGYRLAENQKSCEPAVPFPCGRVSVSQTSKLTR

Compound | IC50
C[C@H]1CN(c2nn(-c3ccnnc3)cc2F)C(=O)[C@@H]([C@@H](O)C(=O)Nc2ccc3c(N)noc3c2)O1 [Example 161, (R)—N-(3-aminobenzo[d]isoxazol-6-yl)-2-((2R,6S)-4-(4-fluoro-1-(pyridazin-4-yl)-1H-pyrazol-3-yl)-6-methyl-3-oxomorpholin-2-yl)-2-hydroxyacetamide] | 32.3 nM
C[C@H]1CN(c2ccn(-c3ccncc3)n2)C(=O)[C@@H]([C@@H](O)C(=O)Nc2ccc3c(N)noc3c2)O1 [Example 163, (R)—N-(3-aminobenzo[d]isoxazol-6-yl)-2-hydroxy-2-((2R,6S)-6-methyl-3-oxo-4-(1-(pyridin-4-yl)-1H-pyrazol-3-yl)morpholin-2-yl)acetamide] | 11.3 nM
C[C@H]1CN(c2ccn(-c3ccnc(C#N)c3)n2)C(=O)[C@@H]([C@@H](O)C(=O)Nc2ccc3c(N)noc3c2)O1 [Example 164, (R)—N-(3-aminobenzo[d]isoxazol-6-yl)-2-((2R,6S)-4-(1-(2-cyanopyridin-4-yl)-1H-pyrazol-3-yl)-6-methyl-3-oxomorpholin-2-yl)-2-hydroxyacetamide] | 5.68 nM
COc1cc(-n2ccc(N3C[C@H](C)O[C@H]([C@@H](O)C(=O)Nc4ccc5c(N)noc5c4)C3=O)n2)ccn1 [Example 167, (R)—N-(3-aminobenzo[d]isoxazol-6-yl)-2-hydroxy-2-((2R,6S)-4-(1-(2-methoxypyridin-4-yl)-1H-pyrazol-3-yl)-6-methyl-3-oxomorpholin-2-yl)acetamide] | 17.8 nM
COc1cc(-n2ccc(N3C[C@@H](C)O[C@H]([C@@H](O)C(=O)Nc4ccc5c(N)noc5c4)C3=O)n2)ccn1 [Example 168, (R)—N-(3-aminobenzo[d]isoxazol-6-yl)-2-hydroxy-2-((2R,6R)-4-(1-(2-methoxypyridin-4-yl)-1H-pyrazol-3-yl)-6-methyl-3-oxomorpholin-2-yl)acetamide] | 5.85 nM
C[C@H]1CN(c2ccn(-c3ccnc(C(F)(F)F)c3)n2)C(=O)[C@@H]([C@@H](O)C(=O)Nc2ccc3c(N)noc3c2)O1 [Example 169, (R)—N-(3-aminobenzo[d]isoxazol-6-yl)-2-hydroxy-2-((2R,6S)-6-methyl-3-oxo-4-(1-(2-(trifluoromethyl)pyridin-4-yl)-1H-pyrazol-3-yl)morpholin-2-yl)acetamide] | 8.99 nM
COc1cc(-n2ccc(N3CC(C)(C)O[C@H]([C@@H](O)C(=O)Nc4ccc5c(N)noc5c4)C3=O)n2)ccn1 [Example 171, (R)—N-(3-aminobenzo[d]isoxazol-6-yl)-2-hydroxy-2-((R)-4-(1-(2-methoxypyridin-4-yl)-1H-pyrazol-3-yl)-6,6-dimethyl-3-oxomorpholin-2-yl)acetamide] | 20.9 nM
CC1(C)CN(c2nn(-c3ccnnc3)cc2F)C(=O)[C@@H]([C@@H](O)C(=O)Nc2ccc3c(N)noc3c2)O1 [Example 173, (R)—N-(3-aminobenzo[d]isoxazol-6-yl)-2-((R)-4-(4-fluoro-1-(pyridazin-4-yl)-1H-pyrazol-3-yl)-6,6-dimethyl-3-oxomorpholin-2-yl)-2-hydroxyacetamide] | 21.1 nM

The next molecules have a lower IC50 than those just listed; values first:

IC50 | Compound
4.4 nM | C[C@@H]1CN(c2nn(-c3ccnnc3)cc2F)C(=O)[C@@H]([C@@H](O)C(=O)Nc2ccc3c(N)noc3c2)O1 [Example 158, (R)—N-(3-aminobenzo[d]isoxazol-6-yl)-2-((2R,6R)-4-(4-fluoro-1-(pyridazin-4-yl)-1H-pyrazol-3-yl)-6-methyl-3-oxomorpholin-2-yl)-2-hydroxyacetamide]
3.37 nM | C[C@@H]1CN(c2ccn(-c3ccncc3)n2)C(=O)[C@@H]([C@@H](O)C(=O)Nc2ccc3c(N)noc3c2)O1 [Example 166, (R)—N-(3-aminobenzo[d]isoxazol-6-yl)-2-hydroxy-2-((2R,6R)-6-methyl-3-oxo-4-(1-(pyridin-4-yl)-1H-pyrazol-3-yl)morpholin-2-yl)acetamide]
2.77 nM | COc1cc(-n2ccc(N3CC(C)(C)O[C@H]([C@@H](O)C(=O)Nc4ccc5c(N)noc5c4)C3=O)n2)cnn1 [Example 174, (R)—N-(3-aminobenzo[d]isoxazol-6-yl)-2-hydroxy-2-((R)-4-(1-(6-methoxypyridazin-4-yl)-1H-pyrazol-3-yl)-6,6-dimethyl-3-oxomorpholin-2-yl)acetamide]
2.61 nM | COc1cc(-n2ccc(N3C[C@H](C)O[C@H]([C@@H](O)C(=O)Nc4ccc5c(N)noc5c4)C3=O)n2)cnn1 [Example 162, (R)—N-(3-aminobenzo[d]isoxazol-6-yl)-2-hydroxy-2-((2R,6S)-4-(1-(6-methoxypyridazin-4-yl)-1H-pyrazol-3-yl)-6-methyl-3-oxomorpholin-2-yl)acetamide]
2.42 nM | C[C@@H]1CN(c2ccn(-c3ccnc(C(F)(F)F)c3)n2)C(=O)[C@@H]([C@@H](O)C(=O)Nc2ccc3c(N)noc3c2)O1 [Example 170, (R)—N-(3-aminobenzo[d]isoxazol-6-yl)-2-hydroxy-2-((2R,6R)-6-methyl-3-oxo-4-(1-(2-(trifluoromethyl)pyridin-4-yl)-1H-pyrazol-3-yl)morpholin-2-yl)acetamide]
2.27 nM | C[C@H]1CN(c2ccn(-c3ccnnc3)n2)C(=O)[C@@H]([C@@H](O)C(=O)Nc2ccc3c(N)noc3c2)O1 [Example 160, (R)—N-(3-aminobenzo[d]isoxazol-6-yl)-2-hydroxy-2-((2R,6S)-6-methyl-3-oxo-4-(1-(pyridazin-4-yl)-1H-pyrazol-3-yl)morpholin-2-yl)acetamide]
2.26 nM | COc1cc(-n2ccc(N3C[C@@H](C)O[C@H]([C@@H](O)C(=O)Nc4ccc5c(N)noc5c4)C3=O)n2)cnn1 [Example 159, (R)—N-(3-aminobenzo[d]isoxazol-6-yl)-2-hydroxy-2-((2R,6R)-4-(1-(6-methoxypyridazin-4-yl)-1H-pyrazol-3-yl)-6-methyl-3-oxomorpholin-2-yl)acetamide]
1.98 nM | C[C@@H]1CN(c2ccn(-c3ccnc(C#N)c3)n2)C(=O)[C@@H]([C@@H](O)C(=O)Nc2ccc3c(N)noc3c2)O1 [Example 165, (R)—N-(3-aminobenzo[d]isoxazol-6-yl)-2-((2R,6R)-4-(1-(2-cyanopyridin-4-yl)-1H-pyrazol-3-yl)-6-methyl-3-oxomorpholin-2-yl)-2-hydroxyacetamide]
1.8 nM | CC1(C)CN(c2ccn(-c3ccnnc3)n2)C(=O)[C@@H]([C@@H](O)C(=O)Nc2ccc3c(N)noc3c2)O1 [Example 172, (R)—N-(3-aminobenzo[d]isoxazol-6-yl)-2-((R)-6,6-dimethyl-3-oxo-4-(1-(pyridazin-4-yl)-1H-pyrazol-3-yl)morpholin-2-yl)-2-hydroxyacetamide]
1.68 nM | CC1(C)CN(c2ccn(-c3cnnc(C#N)c3)n2)C(=O)[C@@H]([C@@H](O)C(=O)Nc2ccc3c(N)noc3c2)O1 [Example 156, (R)—N-(3-Aminobenzo[d]isoxazol-6-yl)-2-((R)-4-(1-(6-cyanopyridazin-4-yl)-1H-pyrazol-3-yl)-6,6-dimethyl-3-oxomorpholin-2-yl)-2-hydroxyacetamide]
1.34 nM | C[C@@H]1CN(c2ccn(-c3ccnnc3)n2)C(=O)[C@@H]([C@@H](O)C(=O)Nc2ccc3c(N)noc3c2)O1 [Example 157, (R)—N-(3-aminobenzo[d]isoxazol-6-yl)-2-hydroxy-2-((2R,6R)-6-methyl-3-oxo-4-(1-(pyridazin-4-yl)-1H-pyrazol-3-yl)morpholin-2-yl)acetamide]
